Results taken from patent publication US20150197492A1, “NOVEL INDENO[1,2-c]QUINOLIN-11-ONE DERIVATIVES, PREPARATION METHOD AND APPLICATION THEREOF” (National Defense Medical Center, priority 2014, published 2015).

Tests used:
Test in all cases: cells
Assay type in all cases: cell-based
K-562 = test system: K-562
MOLT-4 = test system: MOLT-4
RPMI-8226 = test system: RPMI-8226
HOP-92 = conditions: Non-Small Cell Lung Cancer HOP-92
NCI-H226 = test system: NCI-H226
NCI-H322M = test system: NCI-H322M
COLO 205 = test system: COLO 205
HCC-2998 = test system: HCC-2998
HCT-116 = test system: HCT-116
HCT-15 = test system: HCT-15
HT29 = test system: HT29
KM12 = test system: KM12
SF-268 = test system: SF-268
SF-539 = test system: SF-539
SNB-75 = test system: SNB-75
LOX IMVI = conditions: Melanoma LOX IMV1
MALME-3M = test system: MALME-3M
M14 = test system: M14
SK-MEL-2 = conditions: Melanoma SK-MEL-2
UACC-62 = test system: UACC-62
OVCAR-3 = OVCAR-3 (Ovarian Cancer), 10 μM, 48 hours
OVCAR-5 = test system: OVCAR-5
OVCAR-8 = test system: OVCAR-8
NCI/ADR-RES = test system: NCI/ADR-RES
A498 = test system: A498
RXF 393 = RXF 393 (Renal Cancer), 10 μM, 48 hours
SN12C = test system: SN12C
UO-31 = test system: UO-31
PC-3 = test system: PC-3
HS 578T = test system: HS 578T
T-47D = test system: T-47D
MDA-MB-468 = test system: MDA-MB-468
[1] = Homo sapiens, K562, Leukemia K-562
[2] = Homo sapiens, Colon Cancer HCT-116
[3] = Homo sapiens, CNS Cancer SF-268
[4] = Homo sapiens, CNS Cancer SF-539
[5] = Homo sapiens, Melanoma MALME-3M

Question: Which results are given for `CCN(CC)CCNc1nc2ccccc2c2c1-c1ccc(Cl)cc1C2=O` [SJ-3, 6-(2-(Diethylamino)ethylamino)-9-chloro-11H-indeno[1,2-c]quinolin-11-one]?
Answer: GI50 (K-562; [1]): 8.75 µM; LC50 (lethal concentration, 50% cell kill) (K-562; [1]): 7.46 µM; growth percentage (K-562; K-562 (Leukemia), 10 μM, 48 hours): 45.29%; TGI (K-562; Leukemia K-562): 3.61 µM; GI50 (MOLT-4; Homo sapiens, Leukemia MOLT-4): 6.24 µM; LC50 (concentration killing 50% of cells) (MOLT-4; Homo sapiens, Leukemia MOLT-4): 7.91 µM; TGI (MOLT-4; Leukemia MOLT-4): 3.43 µM; growth percentage (MOLT-4; MOLT-4 (Leukemia), 10 μM, 48 hours): 34.63%; GI50 (RPMI-8226; Homo sapiens, Leukemia RPMI-8226): 20.2 µM; CC50 (RPMI-8226; Homo sapiens, Leukemia RPMI-8226, read-out: LC50 (the source's name)): 9.73 µM; TGI (RPMI-8226; Leukemia RPMI-8226): 4.31 µM; growth percentage (RPMI-8226; RPMI-8226 (Leukemia), 10 μM, 48 hours): 81.94%; GI50 (HOP-92; Homo sapiens): 3.08 µM; LC50 (HOP-92; Homo sapiens): 25.1 µM; TGI (HOP-92): 5.80 µM; GI50 (NCI-H226; Homo sapiens, Non-Small Cell Lung Cancer NCI-H226): 1.88 µM; growth percentage (NCI-H226; NCI-H226 (Non-Small Cell Lung Cancer), 10 μM, 48 hours): 80.86%; GI50 (NCI-H322M; Homo sapiens, Non-Small Cell Lung Cancer NCI-H322M): 34.5 µM; CC50 (NCI-H322M; Homo sapiens, Non-Small Cell Lung Cancer NCI-H322M, read-out: LC50 (the source's name)): 36.2 µM; growth percentage (NCI-H322M; NCI-H322M (Non-Small Cell Lung Cancer), 10 μM, 48 hours): 69.83%; TGI (NCI-H322M; Non-Small Cell Lung Cancer NCI-H322M): 13.10 µM; growth percentage (COLO 205; COLO 205 (Colon Cancer), 10 μM, 48 hours): 45.69%; GI50 (COLO 205; Homo sapiens, Colon Cancer COLO 205): 2.41 µM; TGI (HCC-2998; Colon Cancer HCC-2998): 4.08 µM; growth percentage (HCC-2998; HCC-2998 (Colon Cancer), 10 μM, 48 hours): 88.65%; GI50 (HCC-2998; Homo sapiens, Colon Cancer HCC-2998): > 100 µM; CC50 (HCC-2998; Homo sapiens, Colon Cancer HCC-2998, read-out: LC50 (the source's name)): 7.94 µM; TGI (HCT-116; Colon Cancer HCT-116): 3.19 µM; growth percentage (HCT-116; HCT-116 (Colon Cancer), 10 μM, 48 hours): 36.96%; GI50 (HCT-116; [2]): 6.19 µM; LC50 (50% lethal concentration) (HCT-116; [2]): 6.06 µM; TGI (HCT-15; Colon Cancer HCT-15): 3.51 µM; growth percentage (HCT-15; HCT-15 (Colon Cancer), 10 μM, 48 hours): 50.38%; GI50 (HCT-15; Homo sapiens, Colon Cancer HCT-15): 4.37 µM; CC50 (HCT-15; Homo sapiens, Colon Cancer HCT-15, read-out: LC50 (the source's name)): 7.5 µM; TGI (HT29; Colon Cancer HT29): 3.16 µM; growth percentage (HT29; HT29 (Colon Cancer), 10 μM, 48 hours): 9.75%; GI50 (HT29; Homo sapiens, HT-29, Colon Cancer HT29): 4.23 µM; CC50 (HT29; Homo sapiens, HT-29, Colon Cancer HT29, read-out: LC50 (the source's name)): 6.28 µM; TGI (KM12; Colon Cancer KM12): 3.11 µM; GI50 (KM12; Homo sapiens, Colon Cancer KM12): 6.48 µM; CC50 (KM12; Homo sapiens, Colon Cancer KM12, read-out: LC50 (the source's name)): 5.96 µM; growth percentage (KM12; KM12 (Colon Cancer), 10 μM, 48 hours): 53.42%; TGI (SF-268; CNS Cancer SF-268): 3.27 µM; GI50 (SF-268; [3]): 17.7 µM; LC50 (SF-268; [3]): 6.52 µM; growth percentage (SF-268; SF-268 (CNS Cancer), 10 μM, 48 hours): 65.88%; TGI (SF-539; CNS Cancer SF-539): 3.15 µM; GI50 (SF-539; [4]): 20.9 µM; LC50 (concentration giving 50% net cell kill) (SF-539; [4]): 5.86 µM; growth percentage (SF-539; SF-539 (CNS Cancer), 10 μM, 48 hours): 85.04%; TGI (SNB-75; CNS Cancer SNB-75): 2.35 µM; GI50 (SNB-75; Homo sapiens, CNS Cancer SNB-75): 3.25 µM; CC50 (SNB-75; Homo sapiens, CNS Cancer SNB-75, read-out: LC50 (the source's name)): 4.86 µM; growth percentage (SNB-75; SNB-75 (CNS Cancer), 10 μM, 48 hours): 71.52%; GI50 (LOX IMVI; Homo sapiens, LOX IMVI): 6.04 µM; CC50 (LOX IMVI; Homo sapiens, LOX IMVI, read-out: LC50 (the source's name)): 6.02 µM; TGI (LOX IMVI): 3.04 µM; GI50 (MALME-3M; [5]): 17.3 µM; LC50 (concentration killing 50% of cells) (MALME-3M; [5]): 7.46 µM; growth percentage (MALME-3M; MALME-3M (Melanoma), 10 μM, 48 hours): 52.55%; TGI (MALME-3M; Melanoma MALME-3M): 3.83 µM; GI50 (M14; Homo sapiens, Melanoma M14): 16.5 µM; CC50 (M14; Homo sapiens, Melanoma M14, read-out: LC50 (the source's name)): 19.3 µM; growth percentage (M14; M14 (Melanoma), 10 μM, 48 hours): 76.44%; TGI (M14; Melanoma M14): 5.48 µM; GI50 (SK-MEL-2; Homo sapiens): 37.7 µM; CC50 (SK-MEL-2; Homo sapiens, read-out: LC50 (the source's name)): 10.4 µM; TGI (SK-MEL-2): 4.73 µM; GI50 (UACC-62; Homo sapiens, Melanoma UACC-62): 14.8 µM; CC50 (UACC-62; Homo sapiens, Melanoma UACC-62, read-out: LC50 (the source's name)): 6.68 µM; TGI (UACC-62; Melanoma UACC-62): 3.31 µM; growth percentage (UACC-62; UACC-62 (Melanoma), 10 μM, 48 hours): 99.56%; growth percentage (OVCAR-3): 73.13%; GI50 (OVCAR-5; Homo sapiens, Ovarian Cancer OVCAR-5): 21.5 µM; CC50 (OVCAR-5; Homo sapiens, Ovarian Cancer OVCAR-5, read-out: LC50 (the source's name)): 6.52 µM; growth percentage (OVCAR-5; OVCAR-5 (Ovarian Cancer), 10 μM, 48 hours): 89.34%; TGI (OVCAR-5; Ovarian Cancer OVCAR-5): 3.32 µM; GI50 (OVCAR-8; Homo sapiens, Ovarian Cancer OVCAR-8): 13.8 µM; CC50 (OVCAR-8; Homo sapiens, Ovarian Cancer OVCAR-8, read-out: LC50 (the source's name)): 7.76 µM; growth percentage (OVCAR-8; OVCAR-8 (Ovarian Cancer), 10 μM, 48 hours): 61.36%; TGI (OVCAR-8; Ovarian Cancer OVCAR-8): 3.63 µM; GI50 (NCI/ADR-RES; Homo sapiens, Ovarian Cancer NCI/ADR-RES): 19.3 µM; CC50 (NCI/ADR-RES; Homo sapiens, Ovarian Cancer NCI/ADR-RES, read-out: LC50 (the source's name)): 7.41 µM; growth percentage (NCI/ADR-RES; NCI/ADR-RES (Ovarian Cancer), 10 μM, 48 hours): 69.55%; TGI (NCI/ADR-RES; Ovarian Cancer NCI/ADR-RES): 3.67 µM; growth percentage (A498; A498 (Renal Cancer), 10 μM, 48 hours): 88.98%; GI50 (A498; Homo sapiens, Renal Cancer A498): 8.76 µM; CC50 (A498; Homo sapiens, Renal Cancer A498, read-out: LC50 (the source's name)): 50.8 µM; TGI (A498; Renal Cancer A498): 1.78 µM; growth percentage (RXF 393): 51.90%; GI50 (SN12C; Homo sapiens, Renal Cancer SN12C): 4.12 µM; CC50 (SN12C; Homo sapiens, Renal Cancer SN12C, read-out: LC50 (the source's name)): 6.16 µM; TGI (SN12C; Renal Cancer SN12C): 2.87 µM; growth percentage (SN12C; SN12C (Renal Cancer), 10 μM, 48 hours): 61.60%; GI50 (UO-31; Homo sapiens, Renal Cancer UO-31): 3.61 µM; CC50 (UO-31; Homo sapiens, Renal Cancer UO-31, read-out: LC50 (the source's name)): 6.48 µM; TGI (UO-31; Renal Cancer UO-31): 2.88 µM; growth percentage (UO-31; UO-31 (Renal Cancer), 10 μM, 48 hours): 25.86%; GI50 (PC-3; Homo sapiens, Prostate Cancer PC-3): 12.5 µM; CC50 (PC-3; Homo sapiens, Prostate Cancer PC-3, read-out: LC50 (the source's name)): 8.98 µM; growth percentage (PC-3; PC-3 (Prostate Cancer), 10 μM, 48 hours): 41.01%; TGI (PC-3; Prostate Cancer PC-3): 3.82 µM; TGI (HS 578T; Breast Cancer HS 578T): 10.00 µM; growth percentage (HS 578T; HS 578T (Breast Cancer), 10 μM, 48 hours): 84.70%; GI50 (HS 578T; Homo sapiens, Breast Cancer HS 578T): 19.3 µM; CC50 (HS 578T; Homo sapiens, Breast Cancer HS 578T, read-out: LC50 (the source's name)): 46.1 µM; TGI (T-47D; Breast Cancer T-47D): 3.56 µM; GI50 (T-47D; Homo sapiens, T47D, Breast Cancer T-47D): 17.8 µM; CC50 (T-47D; Homo sapiens, T47D, Breast Cancer T-47D, read-out: LC50 (the source's name)): 7.19 µM; growth percentage (T-47D; T-47D (Breast Cancer), 10 μM, 48 hours): 43.28%; TGI (MDA-MB-468; Breast Cancer MDA-MB-468): 3.07 µM; GI50 (MDA-MB-468; Homo sapiens, Breast Cancer MDA-MB-468): 1.71 µM; growth percentage (MDA-MB-468; MDA-MB-468 (Breast Cancer), 10 μM, 48 hours): 33.81%
